Measured values as given in patent publication US9458153B2, “Dihydroquinolizinones for the treatment and prophylaxis of hepatitis B virus infection” (Hoffmann-La Roche Inc., priority 2014, dated 2016).
Where a name gives a salt, the structure may show the parent alone.

Tested on: HBsAg
Assay: HBsAg assay (chemiluminescence immunoassay of secreted HBsAg in HepG2.2.15 culture supernatant)
Type: cell-based, HBV
Conditions: HBsAg secretion reduced by 50% vs no drug control, HepG2.2.15 cells, CLIA kit
Description: HepG2.2.15 cells (Acs et al. Proc Natl Acad Sci USA, 84, (1987), 4641-4), a constitutively HBV-expressing cell line were cultured in DMEM+Glutamax-I medium (Invitrogen, Carlsbad, Calif., USA), supplemented with 10% fetal bovine serum (Invitrogen) and G418 (Invitrogen) at a final concentration of 200 mg/L and maintained in 5% CO2 at 37° C.
HepG2.2.15 cells were seeded in duplicate into white, 96-well plates at 1.5×10^4 cells/well. The cells were treated with a three-fold serial dilution series of the compounds in DMSO. The final DMSO concentration in all wells was 1% and DMSO was used as no drug control.
The HBsAg chemiluminescence immunoassay (CLIA) kit (Autobio Diagnostics Co., Zhengzhou, China, Catalog number: CL0310-2) was used to measure the levels of secreted HBV antigens semi-quantitatively. For the detection 50 μL/well culture supernatant was used and HBsAg was quantified using HBsAg chemiluminescence immunoassay (CLIA) kit (Autobio Diagnostics Co., Zhengzhou, China, Catalog number: CL0310-2), 50 μL of the supernatant was transferred to the CLIA assay plate and 50 μL of enzyme conjugate reagent was added into each well. The plates were sealed and gently agitated for 1 hour at room temperature. The supernatant-enzyme-mixture was discarded and wells were washed 6 times with 300 μL of PBS. The residual liquid was removed by plating the CLIA plate right side down on absorbent tissue paper. 25 μL of substrates A and B were added to each well. Luminance was measured using a luminometer (Mithras LB 940 Multimode Microplate Reader) after 10 minutes incubation. Dose-response curves were generated and the IC50 value was extrapolated by using the E-WorkBook Suite (ID Business Solutions Ltd., Guildford, UK).
The compounds of the present invention were tested for their capacity to inhibit HBsAg as described herein.

Compound	IC50	IC50 (hydrochloride)
COc1cc2c(cc1OCCCCCCO)CC(C(C)(C)C)n1cc(C(=O)O)c(=O)cc1-2 (single isomer, unassigned; (+)) [Example 156, (+)-6-tert-butyl-9-(6-hydroxyhexoxy)-10-methoxy-2-oxo-6,7-dihydrobenzo[a]quinolizine-3-carboxylic acid]	1 nM	–
COc1cc2c(cc1OCCCCCCNC(=O)OC(C)(C)C)CC(C(C)(C)C)n1cc(C(=O)O)c(=O)cc1-2 (single isomer, unassigned; (+)) [Example 162, (+)-9-[6-(tert-butoxycarbonylamino)hexoxy]-6-tert-butyl-10-methoxy-2-oxo-6,7-dihydrobenzo[a]quinolizine-3-carboxylic acid]	2 nM	–
COc1cc2c(cc1OCCCCCCN)CC(C(C)(C)C)n1cc(C(=O)O)c(=O)cc1-2 (single isomer, unassigned; (+)) [Example 164, (+)-9-(6-aminohexoxy)-6-tert-butyl-10-methoxy-2-oxo-6,7-dihydrobenzo[a]quinolizine-3-carboxylic acid hydrochloride]	–	3 nM
COc1cc2c(cc1OCCCCCCCCNC(=O)OC(C)(C)C)CC(C(C)(C)C)n1cc(C(=O)O)c(=O)cc1-2 (single isomer, unassigned; (+)) [Example 168, (+)-9-[8-(tert-butoxycarbonylamino)octoxy]-6-tert-butyl-10-methoxy-2-oxo-6,7-dihydrobenzo[a]quinolizine-3-carboxylic acid]	6 nM	–
COc1cc2c(cc1OCCCCCCCCN)CC(C(C)(C)C)n1cc(C(=O)O)c(=O)cc1-2 (single isomer, unassigned; (+)) [Example 170, (+)-9-(8-aminooctoxy)-6-tert-butyl-10-methoxy-2-oxo-6,7-dihydrobenzo[a]quinolizine-3-carboxylic acid hydrochloride]	–	8 nM
COc1cc2c(cc1OCCCCCN)CC(C(C)(C)C)n1cc(C(=O)O)c(=O)cc1-2 (single isomer, unassigned; (+)) [Example 173, (+)-9-(5-aminopentoxy)-6-tert-butyl-10-methoxy-2-oxo-6,7-dihydrobenzo[a]quinolizine-3-carboxylic acid hydrochloride]	–	21 nM
COc1cc2c(cc1OCCCSC)CC(C(C)(C)C)n1cc(C(=O)O)c(=O)cc1-2 (single isomer, unassigned; (+)) [Example 184, (+)-6-tert-butyl-10-methoxy-9-(3-methylsulfanylpropoxy)-2-oxo-6,7-dihydrobenzo[a]quinolizine-3-carboxylic acid]	1 nM	–
COc1cc2c(cc1OCCCS(C)(=O)=O)CC(C(C)(C)C)n1cc(C(=O)O)c(=O)cc1-2 (single isomer, unassigned; (+)) [Example 187, (+)-6-tert-butyl-10-methoxy-9-(3-methylsulfonylpropoxy)-2-oxo-6,7-dihydrobenzo[a]quinolizine-3-carboxylic acid]	13 nM	–
COc1cc2c(cc1OCCCN1CCOCC1)CC(C(C)(C)C)n1cc(C(=O)O)c(=O)cc1-2 (single isomer, unassigned; (+)) [Example 193, (+)-6-tert-butyl-10-methoxy-9-(3-morpholinopropoxy)-2-oxo-6,7-dihydrobenzo[a]quinolizine-3-carboxylic acid]	3 nM	–
COCCCOc1cc2c(cc1OC)-c1cc(=O)c(C(=O)O)cn1C(CC(F)(F)F)C2 (single isomer, unassigned; (+)) [Example 200, (+)-10-methoxy-9-(3-methoxypropoxy)-2-oxo-6-(2,2,2-trifluoroethyl)-6,7-dihydrobenzo[a]quinolizine-3-carboxylic acid]	24 nM	–
COCCCOc1cc2c(cc1Cl)-c1cc(=O)c(C(=O)O)cn1C(C(C)(C)C)C2 (single isomer, unassigned; (+)) [Example 203, (+)-6-tert-butyl-10-chloro-9-(3-methoxypropoxy)-2-oxo-6,7-dihydrobenzo[a]quinolizine-3-carboxylic acid]	0.3 nM	–
